One test concerns the target T1, adenosine A2 receptor (Rattus norvegicus, UniProt P30543).
T1 construct: 5 mg original tissue weight of rat weight of rat striatal membranes; tissue Pel-Freez (Rogers, Arkansas); host or cells: rat brain striatum membranes (Sprague-Dawley; Long-Evans hooded rats gave essentially identical results)
Put plainly: Adenosine Receptor Binding, A2 Receptor Affinity (RBA2), [3H]NECA, rat striatal membranes. To be noted: 4 nM [3H]NECA, 50 nM N6-cyclopentyladenosine. The procedure:
Brains from 200-500 g mixed sex Sprague-Dawley rats were purchased from Pel-Freez (Rogers, Arkansas). Fresh brains from male Long-Evans hooded rats (Blue Spruce Farms, Altamont, NY) gave essentially identical results. Brains were thawed and then kept on ice while the striata were dissected out. Striata were disrupted in 10 vol of ice-cold 50 mM Tris.HCl (pH 7.7 at 25° C., pH 8.26 at 5° C.) (Tris) for 30 seconds in a Polytron PT-10 (Brinkmann) at setting 5. The suspension was centrifuged at 50,000 xg for ten minutes, the supernatant discarded, the pellet resuspended in 10 vol ice-cold Tris as above, recentrifuged, resuspended at 1 g/5 ml, and stored in plastic vials at -70° C. (stable for at least six months). When needed, tissue was thawed at room temperature, disrupted in a Polytron, and kept on ice until used. […]
Incubations were terminated by filtration through 2.4 cm GF/B filters under reduced pressure. […] Filters were put in scintillation vials, 8 ml of Formula 947 scintillation fluid added, and the vials left overnight, shaken, and counted in a liquid scintillation counter at 40% efficiency.
Nonspecific binding was defined as binding in the presence of 100 μM N^6 -cyclopentyladenosine, and specific binding was defined as total binding minus nonspecific binding. The IC50 was calculated by weighted nonlinear least squares curve-fitting to the mass-action equation. […]

A further test addresses T2, adenosine A1 receptor (Rattus norvegicus, UniProt P25099).
T2 construct: Whole brain minus cerebellum and brainstem from male Long Evans rats; from tissue; host or cells: whole brain minus cerebellum and brainstem, male Long Evans rats, membranes
T2 sequence (P25099 1-326): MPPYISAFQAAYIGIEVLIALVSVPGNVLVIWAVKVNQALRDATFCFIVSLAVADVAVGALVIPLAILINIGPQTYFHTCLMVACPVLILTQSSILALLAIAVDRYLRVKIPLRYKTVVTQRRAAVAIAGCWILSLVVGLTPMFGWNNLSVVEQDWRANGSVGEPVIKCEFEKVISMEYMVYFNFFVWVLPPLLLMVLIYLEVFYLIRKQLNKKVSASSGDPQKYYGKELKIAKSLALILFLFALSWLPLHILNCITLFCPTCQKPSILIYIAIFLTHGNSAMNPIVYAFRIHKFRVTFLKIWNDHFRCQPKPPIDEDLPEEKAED
Put plainly: Adenosine Receptor Binding, A1 Receptor Affinity (RBA1), [3H]-CHA. To be noted: rat brain membranes, 1.0 nM [3H]-CHA. The procedure: Whole brain minus cerebellum and brainstem from male Long Evans rats (150-200 g) was homogenized in 30 volumes of ice-cold 0.05M Tris-HCl buffer pH 7.7 using a Brinkman Polytron PT-10, (setting number 6 for 20 seconds) and centrifuged for ten minutes at 20,000 × g (Sorvall RC-2), 4° C. The supernatant was discarded, and the pellet was resuspended and centrifuged as before. The pellet was resuspended in 20 ml Tris-HCl buffer containing two International Units/ml of adenosine deaminase (Sigma type III from calf intestinal mucosa), incubated at 37° C. for 30 minutes, then subsequently at 0° C. for ten minutes. […]
Tissue homogenate (10 mg/ml) was incubated in 0.05M Tris-HCl buffer pH 7.7 containing 1.0 nM [^3 H]-N^6 -cyclohexyladenosine (^3 H]-CHA) with or without test agents in triplicate for one hour at 25° C. […] The radio-labeled ligand retained on the filter was measured by liquid scintillation spectrophotometry after shaking the filters for one hour or longer on a mechanical shaker in 10 ml of Beckman Ready-Solv HP scintillation cocktail.
Nonspecific binding was defined as the binding which occurred in the presence of 1 mM theophylline. […] The Scatchard plot was calculated by linear regression of the line obtained by plotting the amount of radioligand bound (pmoles/gram of tissue) versus [formula] […] The maximal number of binding sites (Bmax) was calculated from the Scatchard plot.

T1 sequence (P30543 whole entry): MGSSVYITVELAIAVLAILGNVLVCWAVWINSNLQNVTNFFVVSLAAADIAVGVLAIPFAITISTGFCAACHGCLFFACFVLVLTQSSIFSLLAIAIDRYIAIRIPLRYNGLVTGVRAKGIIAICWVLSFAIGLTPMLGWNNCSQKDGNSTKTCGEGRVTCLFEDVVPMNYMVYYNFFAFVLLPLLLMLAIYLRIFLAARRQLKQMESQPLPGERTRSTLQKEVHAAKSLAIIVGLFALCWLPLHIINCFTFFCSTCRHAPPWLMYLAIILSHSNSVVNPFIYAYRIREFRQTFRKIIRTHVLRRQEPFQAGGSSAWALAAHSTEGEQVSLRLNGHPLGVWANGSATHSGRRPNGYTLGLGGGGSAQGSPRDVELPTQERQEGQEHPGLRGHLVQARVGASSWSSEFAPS

Consider `C[C@H](O)CNc1ncnc2c1ncn2[C@@H]1O[C@H](CO)[C@@H](O)[C@H]1O` [N^6-[(S)-2-hydroxypropyl]adenosine, N^6-[(S)-2-Hydroxypropyl]adenosine], for which the IC50 stood at 14 µM at adenosine A2 receptor and 0.006 µM at adenosine A1 receptor.

The values above are taken from patent US4626526A, “(S)-N^6 -2-hydroxypropyladenosines” (Warner-Lambert Company, priority 1984, dated 1986).
